Reference: PMC12090182, “Repurposing of the RIPK1-Selective Benzo[1,4]oxazepin-4-one Scaffold for the Development of a Type III LIMK1/2 Inhibitor” (ACS Chemical Biology, 2025)
Like-named read-outs stand apart in the source and are kept apart here.

Test system: U2OS cells
Format: cell-based
Protocol: To assess the influence on cell health, a high-content screening in living cells called the multiplex high-content assay, as described previously by Tjaden et al., was performed.[38] In brief, HEK293T (ATCC CRL-1573) and U2OS (ATCCHTB-96) were cultured in DMEM plus L-glutamine (high glucose) supplemented by 10% FBS (Gibco) and penicillin/streptomycin (Gibco). MRC-9 fibroblasts ([…]) were cultured in EMEM plus L-glutamine supplemented by 10% FBS (Gibco) and penicillin/streptomycin (Gibco). Cells were seeded at a density of 1250 cells per well in a 384-well plate in a culture medium (cell culture microplate, PS, f-bottom, μClear, 781091, Greiner), with a volume of 50 μL per well. All outer wells were filled with 100 μL of PBS buffer (Gibco). […] The cell shape and fluorescence were measured before treatment and 12, 24, and 48 h after compound treatment using the CQ1 high-content confocal microscope (Yokogawa, Musashino, Japan). […] The compounds were tested at 1 and 10 μM, respectively. Acquired images of the cells were processed using Yokogawa CellPathfinder software (v3.04.02.02). […] Results were normalized to cells exposed to 0.1% DMSO. All compounds were tested in biological duplicates, and SEM (standard error of mean) was calculated of biological duplicates.

[1] = 1 µM, 0 h after treatment, U2OS, biological replicate 1
[2] = 1 µM, 0 h after treatment, U2OS, biological replicate 2
[3] = 1 µM, 12 h after treatment, U2OS, biological replicate 1
[4] = 1 µM, 12 h after treatment, U2OS, biological replicate 2
[5] = 1 µM, 24 h after treatment, U2OS, biological replicate 1
[6] = 1 µM, 24 h after treatment, U2OS, biological replicate 2
[7] = 1 µM, 48 h after treatment, U2OS, biological replicate 1
[8] = 1 µM, 48 h after treatment, U2OS, biological replicate 2
[9] = 10 µM, 0 h after treatment, U2OS, biological replicate 1
[10] = 10 µM, 0 h after treatment, U2OS, biological replicate 2
[11] = 10 µM, 12 h after treatment, U2OS, biological replicate 1
[12] = 10 µM, 12 h after treatment, U2OS, biological replicate 2
[13] = 10 µM, 24 h after treatment, U2OS, biological replicate 1
[14] = 10 µM, 24 h after treatment, U2OS, biological replicate 2
[15] = 10 µM, 48 h after treatment, U2OS, biological replicate 1
[16] = 10 µM, 48 h after treatment, U2OS, biological replicate 2

SMILES: CN1C(=O)[C@@H](N2CCc3c(C(N)=O)nn(Cc4ccccc4)c3C2=O)COc2ccccc21 [Compound 11]
- Population apoptotic cell (%) (human, 0 h, 1 µM): 66.67%

SMILES: CC(C)C(=O)Nc1ncc(C(=O)NCCN(Cc2ccccc2)C(=O)c2ccc(S(=O)(=O)Nc3ccccc3)cc2)s1 [TH470]
- Cell count normalized to cells treated with DMSO control [1]: 0.966
- Cell count per well [1]: 201
- Population Fragmented Nuclei (%) [1]: 47.72%
- Population Healthy Nuclei (%) [1]: 44.16%
- Population Pyknosed Nuclei (%) [1]: 8.12%
- Population apoptotic cell (%) [1]: 87.50%
- Population cell that influence microtubule strucutre (%) [1]: 6.90%
- Population with increased mitochondrial mass (%) [1]: 2.30%
- Population with membrane disruption (%) [1]: 9.20%
- Cell count normalized to cells treated with DMSO control [2]: 1.038
- Cell count per well [2]: 89
- Population Fragmented Nuclei (%) [2]: 15.73%
- Population Healthy Nuclei (%) [2]: 79.78%
- Population Pyknosed Nuclei (%) [2]: 4.49%
- Population apoptotic cell (%) [2]: 50.00%
- Population cell that influence microtubule strucutre (%) [2]: 5.63%
- Population with increased mitochondrial mass (%) [2]: 4.23%
- Population with membrane disruption (%) [2]: 4.23%
- Cell count normalized to cells treated with DMSO control [3]: 0.8658
- Cell count per well [3]: 229
- Population Fragmented Nuclei (%) [3]: 36.24%
- Population Healthy Nuclei (%) [3]: 55.96%
- Population Pyknosed Nuclei (%) [3]: 7.80%
- Population apoptotic cell (%) [3]: 76.47%
- Population cell that influence microtubule strucutre (%) [3]: 1.64%
- Population with increased mitochondrial mass (%) [3]: 4.10%
- Population with membrane disruption (%) [3]: 4.10%
- Cell count normalized to cells treated with DMSO control [4]: 1.074
- Cell count per well [4]: 127
- Population Fragmented Nuclei (%) [4]: 17.89%
- Population Healthy Nuclei (%) [4]: 73.98%
- Population Pyknosed Nuclei (%) [4]: 8.13%
- Population apoptotic cell (%) [4]: 100.00%
- Population cell that influence microtubule strucutre (%) [4]: 4.40%
- Population with increased mitochondrial mass (%) [4]: 4.40%
- Population with membrane disruption (%) [4]: 12.09%
- Cell count normalized to cells treated with DMSO control [5]: 0.8405
- Cell count per well [5]: 262
- Population Fragmented Nuclei (%) [5]: 31.54%
- Population Healthy Nuclei (%) [5]: 59.62%
- Population Pyknosed Nuclei (%) [5]: 8.85%
- Population apoptotic cell (%) [5]: 73.91%
- Population cell that influence microtubule strucutre (%) [5]: 2.58%
- Population with increased mitochondrial mass (%) [5]: 4.52%
- Population with membrane disruption (%) [5]: 5.16%
- Cell count normalized to cells treated with DMSO control [6]: 1.041
- Cell count per well [6]: 148
- Population Fragmented Nuclei (%) [6]: 19.59%
- Population Healthy Nuclei (%) [6]: 67.57%
- Population Pyknosed Nuclei (%) [6]: 12.84%
- Population apoptotic cell (%) [6]: 94.74%
- Population cell that influence microtubule strucutre (%) [6]: 3.00%
- Population with increased mitochondrial mass (%) [6]: 4.00%
- Population with membrane disruption (%) [6]: 4.00%
- Cell count normalized to cells treated with DMSO control [7]: 0.7931
- Cell count per well [7]: 353
- Population Fragmented Nuclei (%) [7]: 26.16%
- Population Healthy Nuclei (%) [7]: 66.57%
- Population Pyknosed Nuclei (%) [7]: 7.27%
- Population apoptotic cell (%) [7]: 80.00%
- Population cell that influence microtubule strucutre (%) [7]: 3.06%
- Population with increased mitochondrial mass (%) [7]: 2.62%
- Population with membrane disruption (%) [7]: 3.93%
- Cell count normalized to cells treated with DMSO control [8]: 1.07
- Cell count per well [8]: 221
- Population Fragmented Nuclei (%) [8]: 17.59%
- Population Healthy Nuclei (%) [8]: 71.30%
- Population Pyknosed Nuclei (%) [8]: 11.11%
- Population apoptotic cell (%) [8]: 87.50%
- Population cell that influence microtubule strucutre (%) [8]: 5.84%
- Population with increased mitochondrial mass (%) [8]: 3.90%
- Population with membrane disruption (%) [8]: 5.84%
- Cell count normalized to cells treated with DMSO control [9]: 1.105
- Cell count per well [9]: 230
- Population Fragmented Nuclei (%) [9]: 38.01%
- Population Healthy Nuclei (%) [9]: 52.49%
- Population Pyknosed Nuclei (%) [9]: 9.50%
- Population apoptotic cell (%) [9]: 85.71%
- Population cell that influence microtubule strucutre (%) [9]: 0.86%
- Population with increased mitochondrial mass (%) [9]: 0.86%
- Population with membrane disruption (%) [9]: 3.45%
- Cell count normalized to cells treated with DMSO control [10]: 0.875
- Cell count per well [10]: 75
- Population Fragmented Nuclei (%) [10]: 10.67%
- Population Healthy Nuclei (%) [10]: 82.67%
- Population Pyknosed Nuclei (%) [10]: 6.67%
- Population apoptotic cell (%) [10]: 80.00%
- Population cell that influence microtubule strucutre (%) [10]: 3.23%
- Population with increased mitochondrial mass (%) [10]: 3.23%
- Population with membrane disruption (%) [10]: 6.45%
- Cell count normalized to cells treated with DMSO control [11]: 0.9149
- Cell count per well [11]: 242
- Population Fragmented Nuclei (%) [11]: 26.79%
- Population Healthy Nuclei (%) [11]: 56.70%
- Population Pyknosed Nuclei (%) [11]: 16.52%
- Population apoptotic cell (%) [11]: 64.86%
- Population cell that influence microtubule strucutre (%) [11]: 62.20%
- Population with increased mitochondrial mass (%) [11]: 41.73%
- Population with membrane disruption (%) [11]: 55.91%
- Cell count normalized to cells treated with DMSO control [12]: 0.8031
- Cell count per well [12]: 95
- Population Fragmented Nuclei (%) [12]: 10.75%
- Population Healthy Nuclei (%) [12]: 74.19%
- Population Pyknosed Nuclei (%) [12]: 15.05%
- Population apoptotic cell (%) [12]: 85.71%
- Population cell that influence microtubule strucutre (%) [12]: 39.13%
- Population with increased mitochondrial mass (%) [12]: 52.17%
- Population with membrane disruption (%) [12]: 28.99%
- Cell count normalized to cells treated with DMSO control [13]: 0.8277
- Cell count per well [13]: 258
- Population Fragmented Nuclei (%) [13]: 25.41%
- Population Healthy Nuclei (%) [13]: 59.43%
- Population Pyknosed Nuclei (%) [13]: 15.16%
- Population apoptotic cell (%) [13]: 75.68%
- Population cell that influence microtubule strucutre (%) [13]: 25.52%
- Population with increased mitochondrial mass (%) [13]: 33.10%
- Population with membrane disruption (%) [13]: 26.90%
- Cell count normalized to cells treated with DMSO control [14]: 0.7946
- Cell count per well [14]: 113
- Population Fragmented Nuclei (%) [14]: 10.81%
- Population Healthy Nuclei (%) [14]: 73.87%
- Population Pyknosed Nuclei (%) [14]: 15.32%
- Population apoptotic cell (%) [14]: 70.59%
- Population cell that influence microtubule strucutre (%) [14]: 19.51%
- Population with increased mitochondrial mass (%) [14]: 31.71%
- Population with membrane disruption (%) [14]: 9.76%
- Cell count normalized to cells treated with DMSO control [15]: 0.7572
- Cell count per well [15]: 337
- Population Fragmented Nuclei (%) [15]: 22.70%
- Population Healthy Nuclei (%) [15]: 63.19%
- Population Pyknosed Nuclei (%) [15]: 14.11%
- Population apoptotic cell (%) [15]: 89.13%
- Population cell that influence microtubule strucutre (%) [15]: 11.65%
- Population with increased mitochondrial mass (%) [15]: 14.56%
- Population with membrane disruption (%) [15]: 12.62%
- Cell count normalized to cells treated with DMSO control [16]: 0.76
- Cell count per well [16]: 157
- Population Fragmented Nuclei (%) [16]: 10.00%
- Population Healthy Nuclei (%) [16]: 69.33%
- Population Pyknosed Nuclei (%) [16]: 20.67%
- Population apoptotic cell (%) [16]: 87.10%
- Population cell that influence microtubule strucutre (%) [16]: 14.42%
- Population with increased mitochondrial mass (%) [16]: 14.42%
- Population with membrane disruption (%) [16]: 11.54%
